For one data set, the target named is T1, B1 bradykinin receptor (Homo sapiens, UniProt P46663).
T1 sequence (P46663 whole entry): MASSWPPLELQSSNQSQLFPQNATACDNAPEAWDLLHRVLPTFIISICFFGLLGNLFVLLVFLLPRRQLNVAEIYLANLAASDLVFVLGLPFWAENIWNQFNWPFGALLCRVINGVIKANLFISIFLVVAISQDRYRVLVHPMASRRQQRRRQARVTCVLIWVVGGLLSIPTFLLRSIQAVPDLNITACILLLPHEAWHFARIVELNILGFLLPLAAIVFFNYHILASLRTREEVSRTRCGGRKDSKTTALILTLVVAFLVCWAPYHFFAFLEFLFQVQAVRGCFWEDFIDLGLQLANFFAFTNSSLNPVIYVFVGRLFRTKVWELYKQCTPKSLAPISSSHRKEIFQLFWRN
The data set is described as follows: Inhibitory constant against human Bradykinin receptor B1 expressed in chinese hamster ovary cells. The data set is classed as cell-based, CHO.

The nature of data set [1]: Oral bioavailability in the Sprague Dawley rats; (n = 3). The data set is classed as ADME, organism-based. The conditions noted are these: rat, in vivo.
The nature of data set [2]: Clearance in the Sprague Dawley rats; (n = 3). The conditions noted are these: rat, in vivo. The format is ADME, organism-based.
Data set [3] can be described thus: Half life in the Sprague Dawley rats; (n = 3). The conditions noted are these: rat, in vivo. The data set is classed as ADME.
A short description of data set [4]: Half life in the Sprague Dawley rats; (n = 3); ND = not determined. The format is ADME. The conditions noted are these: rat, in vivo.

As for `COC(=O)c1ccccc1-c1ccc(CNc2ncccc2NC(=O)CC#N)cc1`, affinity on B1 bradykinin receptor was put at a Ki of 11 nM. Besides, in data set [1], the bioavailability (commonly the share of a dose that reaches the circulation, judged against a reference dose that is usually intravenous) worked out at 28%. Moreover, in data set [2], the clearance (as a rule, the rate of elimination divided by the concentration) worked out at 18 mL/min/kg. The half-life (usually how long it takes for the measured level to halve) in data set [3] is 48 min.

`Cc1ccnc(NCc2ccc(-c3ccccc3C(=O)O)cc2)c1NC(=O)CC#N`: on B1 bradykinin receptor, the Ki (in general, a dissociation constant, usually derived from enzyme kinetics or from competition with a known ligand) came out at 11.5 nM. Further, the bioavailability in data set [1] came out at 19%. The clearance in data set [2] turned out to be 4.3 mL/min/kg. This molecule also had a half-life in data set [3] of 120 min.

The molecule `CNC(=O)c1ccccc1-c1ccc(CNc2ncccc2NC(=O)CC(F)(F)F)cc1` gave a Ki on B1 bradykinin receptor of 33 nM. Also, in data set [1], the bioavailability amounted to 95%. Besides, the clearance in data set [2] was 15 mL/min/kg. In data set [3], this molecule gave a half-life of 18 min.

Molecule `COC(=O)c1ccccc1-c1ccc([C@@H](C)Nc2nccc(C)c2NC(=O)CC(F)(F)F)cc1` yielded an inhibitory constant (Ki) at B1 bradykinin receptor of 1.8 nM. The molecule also registered a bioavailability in data set [1] of 17%. The molecule further displayed a clearance in data set [2] of 8 mL/min/kg. In data set [3], the half-life is 54 min.

Turning to `CNC(=O)c1ccccc1-c1ccc(CNc2nccc(C)c2NC(=O)CC(F)(F)F)cc1`, the affinity on B1 bradykinin receptor, expressed as Ki, was 11 nM. Further, the bioavailability in data set [1] was 79%. The molecule also displayed a clearance in data set [2] of 30 mL/min/kg. The same molecule gave a half-life in data set [3] of 60 min.

In turn, `COC(=O)c1ccccc1-c1ccc(CNc2ncccc2NC(=O)C(C)C)cc1` displayed a Ki on B1 bradykinin receptor of 230 nM.

In turn, `COC(=O)c1ccccc1-c1ccc(CNc2ncccc2NC(=O)CN(C)C)cc1` had a Ki at B1 bradykinin receptor of 1280 nM. This Ki lies about 5.6-fold higher than the previous one.

Molecule `CCCC(=O)Nc1cccnc1NCc1ccc(-c2ccccc2C(=O)OC)cc1` yielded a Ki at B1 bradykinin receptor of 88 nM. Besides, in data set [1], the bioavailability is 15%. The same molecule returned a clearance in data set [2] of 23 mL/min/kg. In data set [3], this molecule showed a half-life of 24 min.

For `COC(=O)c1ccccc1-c1ccc(CNc2nccc(C)c2NC(=O)CC(F)(F)F)cc1`, at B1 bradykinin receptor, the Ki was found to be 7.1 nM. In data set [1], the bioavailability came out at 40%. In data set [2], the clearance was determined as 14 mL/min/kg. Further, in data set [3], the half-life is 24 min.

With `CNC(=O)c1ccccc1-c1ccc([C@@H](C)Nc2nccc(C)c2NC(=O)CC(F)(F)F)cc1`, on B1 bradykinin receptor, the affinity corresponds to a Ki of 6 nM. This molecule came in with a bioavailability in data set [1] of 25%. For the same molecule, the clearance in data set [2] is 31 mL/min/kg. In data set [3], the half-life was 30 min.

Regarding `COC(=O)c1ccccc1-c1ccc(CNc2ncccc2NC(=O)CS(C)(=O)=O)cc1`, at B1 bradykinin receptor, the Ki came out at 40 nM.

`COCC(=O)Nc1cccnc1NCc1ccc(-c2ccccc2C(=O)OC)cc1` yielded a Ki on B1 bradykinin receptor of 390 nM.

In turn, `COC(=O)c1ccccc1-c1ccc(CNc2ncccc2NC(=O)CC(F)(F)F)cc1` had a half-life in data set [4] of 12 min. For the same molecule, the bioavailability in data set [1] amounted to 9%. In data set [2], this molecule gave a clearance of 35 mL/min/kg.

For the molecule `CCCCC(=O)Nc1cccnc1NCc1ccc(-c2ccccc2C(=O)OC)cc1`, the bioavailability in data set [1] amounted to 2%. The molecule further had a clearance in data set [2] of 30 mL/min/kg. The molecule further showed a half-life in data set [3] of 12 min.

On to `CCC(=O)Nc1cccnc1NCc1ccc(-c2ccccc2C(=O)OC)cc1`, for which the inhibitory constant (Ki) on B1 bradykinin receptor was determined as 119 nM.

In the case of `COC(=O)c1ccccc1-c1ccc([C@@H](C)Nc2nccc(C)c2NC(=O)CC#N)cc1`, at B1 bradykinin receptor, the Ki worked out at 2.6 nM. In addition, in data set [1], the bioavailability is 27%. Also, the clearance in data set [2] is 18.5 mL/min/kg. Besides, in data set [3], the half-life is 12 min.
